Paper PMC5532207, “Honokiol suppresses formyl peptide-induced human neutrophil activation by blocking formyl peptide receptor 1” (Scientific Reports, 2017)

Target: T1, Formyl peptide receptor 1 (FPR1) (Homo sapiens, UniProt P21462)
T1 construct: human neutrophils; also hFPR1 (NM_002029)-transfected HEK-293 and differentiated THP-1 cells
T1 sequence (P21462 1-350): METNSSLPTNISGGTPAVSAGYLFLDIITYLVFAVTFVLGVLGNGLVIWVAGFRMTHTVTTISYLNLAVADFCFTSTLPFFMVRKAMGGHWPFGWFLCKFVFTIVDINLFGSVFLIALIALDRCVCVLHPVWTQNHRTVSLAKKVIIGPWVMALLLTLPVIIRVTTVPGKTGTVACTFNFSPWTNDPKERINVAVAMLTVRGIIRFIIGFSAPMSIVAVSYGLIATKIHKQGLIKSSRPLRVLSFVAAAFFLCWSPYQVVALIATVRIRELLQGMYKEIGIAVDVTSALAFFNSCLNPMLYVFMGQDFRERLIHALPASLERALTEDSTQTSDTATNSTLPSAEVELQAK
Test: displacement of fluorescent FPR1 ligand fNLFNYK on intact cells, flow cytometry
Assay type: cell-based

IC50: 7.44 ± 0.97 µM
Structure (SMILES): C=CCc1ccc(O)c(-c2ccc(O)c(CC=C)c2)c1 [H, Honokiol]
